Like-named read-outs stand apart in the source and are kept apart here.
Experiments:
[1] = in vitro; conditions: human
[2] = tested on: Huh7 cells expressing a subgenomic RNA replicon of Con1 (genotype 1b) sequence origin; test: microbe, parasite or virus in culture; conditions: Hepatitis C virus
[3] = Huh-7, read-out: IC50 (uM) [SG]
[4] = Huh-7, read-out: Max Effect@CC30 (inhibition)

| SMILES | CC50 ([1]; CC50 (uM) [SG]) [µM] | IC50 [2, 3] [µM] | Emax [2, 4] [%] | IC90 ([2]; Huh-7) [µM] | further results |
| --- | --- | --- | --- | --- | --- |
| CNCc1cc(Br)ccc1Oc1ccc(SC)c(C)c1 [Compound 31, (5-bromo-2-(3-methyl-4-(methylthio)phenoxy)phenyl)-N-methylmethanamine] | 13.5 | 7.51 | 18 | – | – |
| CSc1ccc(Oc2ccc(S(N)(=O)=O)cc2CN2CC[C@@H](N(C)C)C2)cc1C [Compound 100, (R)-3-((3-(dimethylamino)pyrrolidin-1-yl)methyl)-4-(3-methyl-4-(methylthio)phenoxy)benzenesulfonamide] | 35.6 | 5.03 | – | 10.6 | – |
| Cc1cccc(Oc2ccc(S(N)(=O)=O)cc2CC(C)C)c1 [Compound 65, 3-isobutyl-4-(m-tolyloxy)benzenesulfonamide] | > 50 | 30.7 | – | 50 | – |
| CN[C@H]1CC[C@@H](c2ccc(Cl)c(Cl)c2)c2ccc(NC(C)=O)cc21 [Sertraline A-Ring Reverse Carboxamide, N-((5S,8S)-5-(3,4-dichlorophenyl)-8-(methylamino)-5,6,7,8-tetrahydronaphthalen-2-yl)acetamide] | 12 ± 1.77 | 0.91 ± 0.08 | 83 ± 6.55 | 7.26 | CC50 ([1]; CC50 (uM)): 10.7 µM; IC50 ([2]; Huh-7): 0.85 µM; Emax ([2]; Huh-7, read-out: Max Effect @CC30 (inhibition)): 87.7%; Emax ([2]; Huh-7, read-out: Max effect @CC30 (%)): 83 ± 6.55%; IC50 ([2]; Huh-7, read-out: SA IC50 (uM)): 0.91 ± 0.08 µM |
| CCCCS(=O)(=O)Nc1ccc2c(c1)[C@@H](NC)CC[C@H]2c1ccc(Cl)c(Cl)c1 [N-((5S,8S)-5-(3,4-dichlorophenyl)-8-(methylamino)-5,6,7,8-tetrahydronaphthalen-2-yl)butane-1-sulfonamide] | 3.63 | 6.07 | – | – | – |
| CN(CCO)[C@H]1CC[C@@H](c2ccc(Cl)c(Cl)c2)c2ccc(C[S+](C)[O-])cc21 (stereo partly drawn) [2-(((1S,4S)-4-(3,4-dichlorophenyl)-7-(methylsulfinylmethyl)-1,2,3,4-tetrahydronaphthalen-1-yl)(methyl)amino)ethanol] | > 50 | 24.2 | – | – | – |
| O=C1CC[C@@H](c2ccc(Cl)c(Cl)c2)c2ccccc21 [4S-Sertraline Ketone, (S)-4-(3,4-dichlorophenyl)-3,4-dihydronaphthalen-1(2H)-one] | > 50 | 32.6 | 77 | – | – |
| CSc1ccc(Oc2ccc(S(N)(=O)=O)cc2CN2CCCCC2)cc1C [Compound 73, 4-(3-methyl-4-(methylthio)phenoxy)-3-(piperidin-1-ylmethyl)benzenesulfonamide] | 37.9 | 4.7 | – | 13.6 | – |
| N[C@H]1CC[C@@H](c2ccc(Cl)c(Cl)c2)c2ccccc21 [(1S,4S)-Desmethyl Sertraline, (1S,4S)-4-(3,4-dichlorophenyl)-1,2,3,4-tetrahydronaphthalen-1-amine] | 8.98 ± 0.1 | 7.5 | 0 | – | CC50 ([1]; CC50 (uM)): 8.98 ± 0.1 µM; Emax ([2]; GETYPE1B, Huh-7, 72 h, read-out: Max Effect @CC30 (inhibition)): 0%; IC50 ([2]; Huh-7, 72 h): 7.5 ± 0.4 µM |
| CSc1ccc(Oc2ccc(S(N)(=O)=O)cc2CNCCN(C)C)cc1C [Compound 96, 3-((2-(dimethylamino)ethylamino)methyl)-4-(3-methyl-4-(methylthio)phenoxy)benzenesulfonamide] | 19.4 | 2.77 | – | 5.89 | – |
| CNCc1ccccc1Oc1ccc(SC)cc1 [Compound 33, N-methyl(2-(4-(methylthio)phenoxy)phenyl)methanamine] | > 50 | 30.2 | 72.3 | – | – |
| CNCc1cc(S(N)(=O)=O)ccc1Oc1ccc(SC)cc1 [Compound 43, 3-((methylamino)methyl)-4-(4-(methylthio)phenoxy)benzenesulfonamide] | > 50 | 32.7 | 73.7 | – | – |
| CN(CCO)[C@H]1CC[C@@H](c2ccc(Cl)c(Cl)c2)c2ccccc21 [N-Ethanol Sertraline, 2-(((1S,4S)-4-(3,4-dichlorophenyl)-1,2,3,4-tetrahydronaphthalen-1-yl)(methyl)amino)ethanol] | 49.8 | 7.8 | 93 | 21.9 | – |
| CNC1CCC(c2cccc(OC)c2)c2ccccc21 (stereo not drawn) [Sertraline B ring m-Methoxy, 4-(3-methoxyphenyl)-N-methyl-1,2,3,4-tetrahydronaphthalen-1-amine] | > 50 | 28.8 | – | – | – |
| CSc1ccc(Oc2ccc(S(N)(=O)=O)cc2CN(C)C[C@H](C)O)cc1C [Compound 71, (S)-3-(((2-hydroxypropyl)(methyl)amino)methyl)-4-(3-methyl-4-(methylthio)phenoxy)benzenesulfonamide] | > 50 | 4.96 | – | 13.4 | – |
| CSc1ccc(Oc2ccc(S(N)(=O)=O)cc2CN2CC[C@H](F)C2)cc1C [Compound 85, (S)-3-((3-fluoropyrrolidin-1-yl)methyl)-4-(3-methyl-4-(methylthio)phenoxy)benzenesulfonamide] | > 50 | 7.22 | – | – | – |
